Assay results as given in patent US20250354195A1, “METHOD OF SCREENING” (UNIVERSITY OF DUNDEE, priority 2024, published 2025).

Molecular target: T1, GSK3β (Homo sapiens, UniProt P49841+Q96SW2)
T1 construct: genetically engineered using CRISPR/Cas9 technology to endogenously tag GSK3p protein with HiBiT tag at the C-terminus; host or cells: HEK293 cells, CRISPR/Cas9 knock-in of HiBiT at the endogenous GSK3B locus
Test: High throughput screening for GSK3β-HiBiT targeted degradation (Nano-Glo HiBiT Lytic luminescence)
Assay type: cell-based
Conditions: HEK293 cells with endogenously HiBiT-tagged GSK3β, 24 h incubation, products of one-pot plate array (FIG. 1, Method A); for DC50: 0.01-30 μM, read-out: DC50 (half-maximal degradation concentration)
Method: High throughput Screening for GSK3 β-HiBiTL: Test compounds were transferred into Echo plate (Beckman, 001-12782, Echo LDV384) using BRAVO automated liquid handling platform which serves as source plate (10 mM stocks in DMSO). Serial dilutions of the compounds were done using Echo550 liquid handler as 30 μM, 10 μM, 3 μM, 1 μM, 0.3 μM, 0.1 μM, 0.03 μM and 0.01 μM in final concentrations in assay plates. One column of each assay plate was reserved for DMSO control treatments. After compounds were serially diluted in assay plates, HEK293 cells (CRL-1573, ATCC) genetically engineered using CRISPR/Cas9 technology to endogenously tag GSK3p protein with HiBiT tag at the C-terminus (Schwinn et al., 2018, CRISPR-mediated tagging of endogenous proteins with a luminescent peptide, ACS Chem. Biol., 13(2), 467-74) were seeded at a density of 5000 cells/well in 50 μL complete media in 384-well TC-grade white plates (Perkin Elmer, Culturplate, 6007619) with the help of Multidrop Combi liquid dispenser and cells were incubated for 24 h with compounds at 37° C. in humidified incubators with 5% CO2. At the end of the treatment, equal volume of Nano-Glo HiBiT Lytic reagent (Promega N3030) supplied with Nano-Glo HiBiT Lytic substrate and LgBiT Protein were added into each well according to manufacturer's instructions, and cells were incubated on an orbital shaker for 15 seconds and for a further 15 minutes at room temperature. Luminescence signals were measured in an appropriate plate reader (PHERAstar FSX, BMG Labtech) (Dixon et al., 2016, NanoLuc complementation reporter optimized for accurate measurement of protein interactions in cells, ACS Chem. Biol., 11, 400-8). Changes in protein abundance upon compound treatment were further analysed by normalising raw luminescence values to DMSO values and fold changes were plotted using for parameter logistic regression with GraphPad Prism (10.1.2).
Furthermore, the present investigators have shown that bifunctional compounds manufactured using the method of the present disclosure may be effective in the uses of bifunctional compounds, for example as PROTACs in targeted protein degradation (TPD). […] GSK3p was targeted for degradation using a binder for GSK3p, and a binder for CRBN; the binders were comprised in molecules comprising moieties for reacting with the orthogonally reactive moieties of the linker. […] The “identifier” identifies the well of the multi-well plate that has been sampled, e.g., AHD2B-1-A1 relates to the top left well in FIG. 1. The DC50 provides an indication of the potency of the bifunctional compound in targeted degradation; Dmax provides an indication of the maximum possible degradation. The use of these metrics is further described in Flexible Fitting of PROTAC Concentration-Response Curves with Changepoint Gaussian Processes, Semenova et al., SLAS Discovery, 2021, 26, 1212-1224.

T1 sequence (P49841 whole entry): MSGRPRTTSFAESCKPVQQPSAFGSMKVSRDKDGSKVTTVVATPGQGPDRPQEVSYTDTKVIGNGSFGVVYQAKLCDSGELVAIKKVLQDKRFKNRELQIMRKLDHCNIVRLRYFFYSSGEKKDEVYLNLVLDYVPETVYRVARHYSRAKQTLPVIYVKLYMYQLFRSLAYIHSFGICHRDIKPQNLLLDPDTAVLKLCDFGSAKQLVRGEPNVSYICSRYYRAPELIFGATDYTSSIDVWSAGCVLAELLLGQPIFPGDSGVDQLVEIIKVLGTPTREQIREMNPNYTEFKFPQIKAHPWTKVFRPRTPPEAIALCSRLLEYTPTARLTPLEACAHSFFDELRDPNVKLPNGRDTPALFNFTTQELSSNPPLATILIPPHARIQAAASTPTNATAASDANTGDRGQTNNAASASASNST
T1 sequence (Q96SW2 whole entry): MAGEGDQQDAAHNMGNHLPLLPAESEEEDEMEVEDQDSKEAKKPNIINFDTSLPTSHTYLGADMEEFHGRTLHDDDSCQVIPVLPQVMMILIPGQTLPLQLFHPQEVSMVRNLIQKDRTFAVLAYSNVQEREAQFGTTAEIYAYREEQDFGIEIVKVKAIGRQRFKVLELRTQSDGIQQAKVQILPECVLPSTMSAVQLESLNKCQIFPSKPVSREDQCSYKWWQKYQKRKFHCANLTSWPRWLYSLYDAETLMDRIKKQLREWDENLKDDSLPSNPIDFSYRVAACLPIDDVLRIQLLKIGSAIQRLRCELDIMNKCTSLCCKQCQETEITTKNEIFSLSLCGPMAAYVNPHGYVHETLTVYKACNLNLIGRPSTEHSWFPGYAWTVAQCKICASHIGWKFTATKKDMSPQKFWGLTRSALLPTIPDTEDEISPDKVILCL
T1 sequence (Q16531 whole entry partner): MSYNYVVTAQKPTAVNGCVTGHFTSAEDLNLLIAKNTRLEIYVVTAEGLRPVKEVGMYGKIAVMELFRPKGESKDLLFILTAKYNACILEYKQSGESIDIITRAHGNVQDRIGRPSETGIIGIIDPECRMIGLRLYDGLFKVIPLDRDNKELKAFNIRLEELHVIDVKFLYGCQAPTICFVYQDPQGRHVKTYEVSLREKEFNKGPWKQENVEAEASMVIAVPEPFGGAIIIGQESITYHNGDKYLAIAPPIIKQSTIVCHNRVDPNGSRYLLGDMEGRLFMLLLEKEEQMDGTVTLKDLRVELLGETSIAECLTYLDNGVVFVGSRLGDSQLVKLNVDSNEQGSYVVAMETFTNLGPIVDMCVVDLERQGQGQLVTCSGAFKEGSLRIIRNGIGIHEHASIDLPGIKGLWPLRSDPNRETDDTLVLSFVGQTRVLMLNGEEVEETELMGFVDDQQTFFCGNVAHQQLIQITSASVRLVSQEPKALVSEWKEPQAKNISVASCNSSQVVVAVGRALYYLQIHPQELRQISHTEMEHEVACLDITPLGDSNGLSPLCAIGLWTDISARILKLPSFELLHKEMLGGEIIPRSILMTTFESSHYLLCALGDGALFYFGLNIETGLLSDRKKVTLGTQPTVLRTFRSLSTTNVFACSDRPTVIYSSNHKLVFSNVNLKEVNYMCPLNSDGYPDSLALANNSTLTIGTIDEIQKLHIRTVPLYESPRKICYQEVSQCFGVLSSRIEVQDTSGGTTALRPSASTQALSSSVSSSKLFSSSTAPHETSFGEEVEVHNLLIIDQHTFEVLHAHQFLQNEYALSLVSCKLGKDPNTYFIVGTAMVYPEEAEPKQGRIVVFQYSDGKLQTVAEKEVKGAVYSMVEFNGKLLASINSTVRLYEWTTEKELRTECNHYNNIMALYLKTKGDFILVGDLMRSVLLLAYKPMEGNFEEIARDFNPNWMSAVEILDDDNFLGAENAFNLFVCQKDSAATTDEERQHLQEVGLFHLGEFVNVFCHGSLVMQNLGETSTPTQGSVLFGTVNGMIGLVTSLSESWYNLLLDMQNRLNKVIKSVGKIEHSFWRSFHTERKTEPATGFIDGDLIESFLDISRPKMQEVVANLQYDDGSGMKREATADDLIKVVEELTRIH

| DC50 | Dmax (maximal effect) | SMILES |
| --- | --- | --- |
| > 10 µM | <30% | COc1ccc(-c2ocnc2C(=O)NCCCn2cc(-c3ccc(CN4CCN(Cc5cccc(N6CCC(=O)NC6=O)c5)CC4)cn3)nn2)cc1Cl [AHD2B-1-A2] |
| > 10 µM | <30% | COc1ccc(-c2ocnc2C(=O)NCCCn2cc(-c3cccc(CN4CCN(Cc5cccc(N6CCC(=O)NC6=O)c5)CC4)n3)nn2)cc1Cl [AHD2B-1-A8] |
| 1.6 µM | 59% | COc1ccc(-c2ocnc2C(=O)NCCCn2cc(COc3ccc(CN4CCC5(C4)CN(Cc4ccc(C(=O)NC6CCC(=O)NC6=O)c(F)c4)C5)cc3)nn2)cc1Cl (stereo not drawn) [AHD2B-1-C6] |
| > 10 µM | <30% | COc1ccc(-c2ocnc2C(=O)NCCCn2cc(-c3cccc(CN4CCN(CC(=O)N[C@H](C(=O)N5C[C@H](O)C[C@H]5C(=O)NCc5ccc(-c6scnc6C)cc5)C(C)(C)C)CC4)n3)nn2)cc1Cl [AHD2B-1-B8] |
| > 10 µM | <30% | COc1ccc(-c2ocnc2C(=O)NCCCn2cc(CCCCCN3CCN(Cc4ccc(C(=O)NC5CCC(=O)NC5=O)nc4)CC3)nn2)cc1Cl (stereo not drawn) [AHD2B-1-F7] |
| 0.25 µM | 32% | COc1ccc(-c2ocnc2C(=O)NCCCn2cc(CCCOc3ccc(CN4CCN(Cc5ccc(C(=O)NC6CCC(=O)NC6=O)nc5)CC4)cc3)nn2)cc1Cl (stereo not drawn) [AHD2B-1-F4] |
| > 10 µM | <30% | COc1ccc(-c2ocnc2C(=O)NCCCn2cc(COc3ccc(CN4CCN(Cc5ccc(C(=O)NC6CCC(=O)NC6=O)nc5)CC4)cc3)nn2)cc1Cl (stereo not drawn) [AHD2B-1-F3] |
| 2.1 µM | 49% | COc1ccc(-c2ocnc2C(=O)NCCCn2cc(CCCCN3CCN(Cc4ccc5c(N6CCC(=O)NC6=O)nn(C)c5c4)CC3)nn2)cc1Cl [AHD2B-1-D1] |
| > 10 µM | <30% | COc1ccc(-c2ocnc2C(=O)NCCCn2cc(CCCCN3CCN(Cc4ccc(N5CCC(=O)NC5=O)cc4)CC3)nn2)cc1Cl [AHD2B-1-G1] |
| < 0.25 µM | 41% | COc1ccc(-c2ocnc2C(=O)NCCCn2cc(CCCOc3ccc(CN4CCN(Cc5ccc6c(N7CCC(=O)NC7=O)nn(C)c6c5)CC4)cc3)nn2)cc1Cl [AHD2B-1-D4] |
| > 10 µM | <30% | COc1ccc(-c2ocnc2C(=O)NCCCn2cc(COCCOCCN3CCN(Cc4cccc(N5CCC(=O)NC5=O)c4)CC3)nn2)cc1Cl [AHD2B-1-A10] |
| > 10 µM | <30% | COc1ccc(-c2ocnc2C(=O)NCCCn2cc(CCCN3CCN(Cc4ccc(C(=O)NC5CCC(=O)NC5=O)nc4)CC3)nn2)cc1Cl (stereo not drawn) [AHD2B-1-F12] |
| > 10 µM | <30% | COc1ccc(-c2ocnc2C(=O)NCCCn2cc(CCCOc3ccc(CN4CCN(CC(=O)N[C@H](C(=O)N5C[C@H](O)C[C@H]5C(=O)NCc5ccc(-c6scnc6C)cc5)C(C)(C)C)CC4)cc3)nn2)cc1Cl [AHD2B-1-B4] |
| > 10 µM | <30% | COc1ccc(-c2ocnc2C(=O)NCCCn2cc(COc3ccc(CN4CCC5(C4)CN(Cc4ccc(N6CCC(=O)NC6=O)cc4)C5)cc3)nn2)cc1Cl [AHD2B-1-G6] |
| > 10 µM | <30% | COc1ccc(-c2ocnc2C(=O)NCCCn2cc(CCCN3CCN(CC(=O)N[C@H](C(=O)N4C[C@H](O)C[C@H]4C(=O)NCc4ccc(-c5scnc5C)cc4)C(C)(C)C)CC3)nn2)cc1Cl [AHD2B-1-B12] |
| > 10 µM | <30% | COc1ccc(-c2ocnc2C(=O)NCCCn2cc(-c3ccc(CN4CCN(Cc5ccc(N6CCC(=O)NC6=O)cc5)CC4)cn3)nn2)cc1Cl [AHD2B-1-G2] |
| > 10 µM | <30% | COc1ccc(-c2ocnc2C(=O)NCCCn2cc(CCCOc3ccc(CN4CCN(Cc5ccc(N6CCC(=O)NC6=O)cc5)CC4)cc3)nn2)cc1Cl [AHD2B-1-G4] |
| > 10 µM | <30% | COc1ccc(-c2ocnc2C(=O)NCCCn2cc(COC3CCN(Cc4ccc(C(=O)NC5CCC(=O)NC5=O)nc4)CC3)nn2)cc1Cl (stereo not drawn) [AHD2B-1-F5] |
